Assay results taken from ChEMBL document CHEMBL4665636, “Spirooxindole-pyrrolidine heterocyclic hybrids promotes apoptosis through activation of caspase-3” (Bioorg Med Chem, 2019).
Active and inactive are the calls of the source. The calls are words filed in the database; no cut-off is given here.

Columns and labels:
A549 [1] = experiment: Induction of apoptosis in human A549 cells assessed as necrotic cells at IC50 measured after 24 hrs by annexicV-FITC/propidium iodide staining based flow cytometry analysis (reference value: 0.23 %); assay type: functional
A549 [2] = experiment: Antiproliferative activity against human A549 cells assessed as reduction in cell proliferation measured after 48 hrs by MTT assay; assay type: functional, cell-based; details: A549, 48 h
A549 [3] = experiment: Induction of apoptosis in human A549 cells assessed as necrotic cells at IC50 measured after 48 hrs by annexicV-FITC/propidium iodide staining based flow cytometry analysis (reference value: 0 %); assay type: functional
A549 [4] = experiment: Induction of apoptosis in human A549 cells assessed as late apoptotic cells at IC50 measured after 24 hrs by annexicV-FITC/propidium iodide staining based flow cytometry analysis (reference value: 0.5 %); assay type: functional
A549 [5] = experiment: Induction of apoptosis in human A549 cells assessed as early apoptotic cells at IC50 measured after 24 hrs by annexicV-FITC/propidium iodide staining based flow cytometry analysis (reference value: 0.16 %); assay type: functional
A549 [6] = experiment: Induction of apoptosis in human A549 cells assessed as viable cells by measuring fluorescence intensity at IC50 measured after 48 hrs by annexicV-FITC/propidium iodide staining based flow cytometry analysis (reference value: 96.89 %); assay type: functional
A549 [7] = experiment: Induction of apoptosis in human A549 cells assessed as early apoptotic cells at IC50 measured after 48 hrs by annexicV-FITC/propidium iodide staining based flow cytometry analysis (reference value: 0.33 %); assay type: functional
A549 [8] = experiment: Induction of apoptosis in human A549 cells assessed as viable cells at IC50 measured after 24 hrs by annexicV-FITC/propidium iodide staining based flow cytometry analysis (reference value: 99.11 %); assay type: functional
A549 [9] = experiment: Induction of apoptosis in human A549 cells assessed as effect on viable cells by measuring fluorescence intensity IC50 measured after 24 hrs by annexicV-FITC/propidium iodide staining based flow cytometry analysis (reference value: 96.25 %); assay type: functional
A549 [10] = experiment: Induction of apoptosis in human A549 cells assessed as distribution of cleaved caspase 3 in nuclei at IC50 after 24 to 48 hrs by FITC staining based microscopy analysis; assay type: functional, cell-based; details: time hrs 24-48
Jurkat [11] = experiment: Antiproliferative activity against human Jurkat cells assessed as reduction in cell proliferation measured after 24 hrs by MTT assay; assay type: functional, cell-based
Jurkat [12] = experiment: Antiproliferative activity against human Jurkat cells assessed as reduction in cell proliferation measured after 48 hrs by MTT assay; assay type: functional, cell-based
A549 [13] = experiment: Induction of apoptosis in human A549 cells assessed as late apoptotic cells at IC50 measured after 48 hrs by annexicV-FITC/propidium iodide staining based flow cytometry analysis (reference value: 0 %); assay type: functional
A549 [14] = experiment: Induction of apoptosis in human A549 cells assessed as distribution of cleaved caspase 3 in cytoplasm at IC50 after 24 to 48 hrs by FITC staining based microscopy analysis; assay type: functional, cell-based; details: time hrs 24-48
A549 [15] = experiment: Induction of apoptosis in human A549 cells assessed as viable cells at IC50 measured after 48 hrs by annexicV-FITC/propidium iodide staining based flow cytometry analysis (reference value: 99.67 %); assay type: functional
A549 [16] = experiment: Induction of apoptosis in human A549 cells assessed as early apoptotic cells at IC50 measured after 48 hrs by annexicV-FITC/propidium iodide staining based flow cytometry analysis (reference value: 3.02 %); assay type: functional
A549 [17] = experiment: Induction of apoptosis in human A549 cells at IC50 measured after 24 hrs by annexicV-FITC/propidium iodide staining based flow cytometry analysis (reference value: 3.63 %); assay type: functional
A549 [18] = experiment: Antiproliferative activity against human A549 cells assessed as reduction in cell proliferation measured after 24 hrs by MTT assay; assay type: functional, cell-based; details: A549, 24 h
[19] = Cytotoxicity against human PCS-130-010 cells assessed as reduction in cell viability up to 200 uM measured up to 48 hrs by MTT assay; assay type: cell-based; details: pcs-130-010, 48 h
[20] = Cytotoxicity against human MCF10 cells assessed as reduction in cell viability up to 200 uM measured up to 48 hrs by MTT assay; assay type: cell-based; details: mcf10, 48 h

SMILES | Activity (A549 [1]) [%] | IC50 (A549 [2]) [µM] | Activity (A549 [3]) [%] | Activity (A549 [4]) [%] | Activity (A549 [5]) [%] | Activity (A549 [6]) [%] | Activity (A549 [7]) [%] | Activity (A549 [8]) [%] | Activity (A549 [9]) [%] | Activity (A549 [10]) | IC50 (Jurkat [11]) [µM] | IC50 (Jurkat [12]) [µM] | Activity (A549 [13]) [%] | Activity (A549 [14]) | Activity (A549 [15]) [%] | Activity (A549 [16]) [%] | Activity (A549 [17]) [%] | IC50 (A549 [18]) [µM] | Activity [19] | Activity [20]
CC[C@@]1(O)C(=O)OCc2c1cc1n(c2=O)Cc2cc3ccccc3nc2-1 [CAMPTOTHECIN] | 6.31 | 32.1 | 4.14 | 28.49 | 10.49 | 39.71 | 30.71 | 54.71 | 58.66 | Active | 51.5 | 22 | 11.17 | Active | 53.97 | 61.13 | 37.51 | 50.9 | – | –
O=C1Nc2ccccc2C12NC(Cc1ccc(O)cc1)C([N+](=O)[O-])C2c1ccccc1 (centres undefined) | – | 66.6 | – | – | – | – | – | – | – | – | 98.3 | 61.6 | – | – | – | – | – | 78.9 | Non-Toxic | Non-Toxic
O=C1Nc2ccccc2C12NC(Cc1ccc(O)cc1)C([N+](=O)[O-])C2c1ccc(Cl)cc1 (centres undefined) | – | 59.2 | – | – | – | – | – | – | – | – | 77.8 | 51.5 | – | – | – | – | – | 74.4 | Non-Toxic | Non-Toxic
Cc1ccc(C2C([N+](=O)[O-])C(Cc3ccc(O)cc3)NC23C(=O)Nc2ccc(OC(F)(F)F)cc23)cc1 (centres undefined) | 0 | 29.6 | 23.2 | 9.63 | 31.45 | 29.53 | 24.18 | 58.92 | 38.62 | Active | 52.8 | 42.9 | 17.79 | Active | 34.83 | 70.35 | 63.87 | 38.7 | Non-Toxic | Non-Toxic
O=C1Nc2ccccc2C12NC(Cc1ccc(O)cc1)C([N+](=O)[O-])C2c1ccc(Br)cc1 (centres undefined) | – | 39.4 | – | – | – | – | – | – | – | – | 73.4 | 43.2 | – | – | – | – | – | 59.1 | Non-Toxic | Non-Toxic
O=C1Nc2ccc(OC(F)(F)F)cc2C12NC(Cc1ccc(O)cc1)C([N+](=O)[O-])C2c1cccc([N+](=O)[O-])c1 (centres undefined) | – | 61.2 | – | – | – | – | – | – | – | – | 83.3 | 50.1 | – | – | – | – | – | 65 | Non-Toxic | Non-Toxic
O=C1Nc2ccccc2C12NC(Cc1ccc(O)cc1)C([N+](=O)[O-])C2c1cccc([N+](=O)[O-])c1 (centres undefined) | – | 117 | – | – | – | – | – | – | – | – | 74.6 | 48.6 | – | – | – | – | – | 78.4 | Non-Toxic | Non-Toxic
Cc1ccc(C2C([N+](=O)[O-])C(Cc3ccc(O)cc3)NC23C(=O)Nc2ccccc23)cc1 (centres undefined) | – | 56.7 | – | – | – | – | – | – | – | – | 114 | 47.8 | – | – | – | – | – | 106 | Non-Toxic | Non-Toxic
O=C1Nc2ccc(OC(F)(F)F)cc2C12NC(Cc1ccc(O)cc1)C([N+](=O)[O-])C2c1ccc(Br)cc1 (centres undefined) | – | 37.2 | – | – | – | – | – | – | – | – | 67.2 | 44.1 | – | – | – | – | – | 51.4 | Non-Toxic | Non-Toxic
O=C1Nc2ccc(OC(F)(F)F)cc2C12NC(Cc1ccc(O)cc1)C([N+](=O)[O-])C2c1ccc(Cl)cc1 (centres undefined) | – | 38.1 | – | – | – | – | – | – | – | – | 67.7 | 44.8 | – | – | – | – | – | 44.9 | Non-Toxic | Non-Toxic
COc1ccc(C2C([N+](=O)[O-])C(Cc3ccc(O)cc3)NC23C(=O)Nc2ccc(OC(F)(F)F)cc23)cc1 (centres undefined) | – | 41.6 | – | – | – | – | – | – | – | – | 62.9 | 42 | – | – | – | – | – | 53.5 | Non-Toxic | Non-Toxic
O=C1Nc2ccc(OC(F)(F)F)cc2C12NC(Cc1ccc(O)cc1)C([N+](=O)[O-])C2c1ccccc1 (centres undefined) | – | 44.7 | – | – | – | – | – | – | – | – | 65.8 | 45 | – | – | – | – | – | 45.8 | Non-Toxic | Non-Toxic
COc1ccc(C2C([N+](=O)[O-])C(Cc3ccc(O)cc3)NC23C(=O)Nc2ccccc23)cc1 (centres undefined) | – | 47.8 | – | – | – | – | – | – | – | – | 76.2 | 47.5 | – | – | – | – | – | 59.2 | Non-Toxic | Non-Toxic
